The values that follow come from patent publication US9834534B2, “Neuraminidase inhibitor compounds, compositions and methods for the use thereof in anti-viral treatments” (THE UNIVERSITY OF BRITISH COLUMBIA, priority 2009, dated 2017).

Data set [1] concerns the target influenza sialidase (subtype N9) (Influenza A virus, UniProt P03472). In words: biochemical. Format: biochemical.
The subject of data set [2] is influenza B/HongKong/5/72. The data set is described as follows: microbe, parasite or virus in culture. The format is cell-based, influenza B virus. The following applies: for minimal effective concentration: Influenza B virus, MDCK, read-out: Cytoprotective effect.
Data set [3] has as its system influenza A/Denver/1/57 (H1N1). The data set is described as follows: microbe, parasite or virus in culture. Format: cell-based, influenza A virus. The following applies: for minimal effective concentration: Influenza A virus, H1N1, MDCK, read-out: Cytoprotective effect.
Data set [4] deals with MDCK cells. The following applies: dog.
Data set [5] deals with influenza A/Brisbane/10/2007 (H3N2). In words: microbe, parasite or virus in culture. The settings on record: for minimal effective concentration: Influenza A virus, H3N2, MDCK, read-out: Cytoprotective effect. The format is cell-based, influenza A virus.
In data set [6] the test system is influenza B/Florida/04/06. Format: cell-based. The following applies: for Relative activity: relative to Zanamivir.
Data set [7] deals with Fukui H3N2 wt. The data set is described as follows: microbe, parasite or virus in culture. Format: cell-based. The following applies: Influenza A virus, H3N2, read-out: IC50 Fukui H3N2 wt.
Data set [8] has as its system sH1N1/01 wt. The data set is described as follows: microbe, parasite or virus in culture. Format: cell-based. The settings on record: Influenza A virus, read-out: IC50 sH1N1/01 wt.
The subject of data set [9] is B/Perth wt. The data set is described as follows: microbe, parasite or virus in culture. Format: cell-based. The following applies: Influenza B virus, read-out: sensitivity to inhibitors, B/Perth wt.
For data set [10] the following is noted: 1 mg/kg.
For data set [11], the target named is H1N1 OsR (Influenza A virus (H1N1), UniProt Q289M4).
In data set [12] the test system is influenza A virus, A/HK/1/68 (H3N2). Also noted: species or system Balb/C mice (Mus musculus). The settings on record: mouse, in vivo.
In data set [13] the test system is B/Florida wt (B/Florida/4/2006). The data set is described as follows: microbe, parasite or virus in culture. The format is cell-based. The settings on record: Influenza B virus, read-out: IC50 B/Florida wt.
The conditions of data set [14]: Balb/C, mouse, in vivo, 1 mg/kg.
Data set [15] can be described thus: in vivo. The following applies: Balb/C, mouse, 1 mg/kg; for half-life: T1/2.
The test system of data set [16] is sH1N1/08 wt. In words: microbe, parasite or virus in culture. The format is cell-based. The following applies: Influenza A virus, read-out: IC50 sH1N1/08 wt.
The test system of data set [17] is Sol Isl sH1N1 wt (A/Solomon Islands/3/2006). In words: microbe, parasite or virus in culture. The format is cell-based, influenza A virus. The settings on record: read-out: IC50 Sol Isl sH1N1 wt.
Data set [18] deals with Auckland pH1N1 wt (A/Auckland/3/2009). In words: microbe, parasite or virus in culture. Format: cell-based. The following applies: Influenza A virus, read-out: IC50 Auckland pH1N1 wt.

Values joined by “and” are separate entries in the source; they are usually repeats but may differ in a detail not shown here. Equal entries are not always repeated. Where two headings read alike, the source gives them in different places.

influenza sialidase (subtype N9), sequence (P03472 whole entry, looked up): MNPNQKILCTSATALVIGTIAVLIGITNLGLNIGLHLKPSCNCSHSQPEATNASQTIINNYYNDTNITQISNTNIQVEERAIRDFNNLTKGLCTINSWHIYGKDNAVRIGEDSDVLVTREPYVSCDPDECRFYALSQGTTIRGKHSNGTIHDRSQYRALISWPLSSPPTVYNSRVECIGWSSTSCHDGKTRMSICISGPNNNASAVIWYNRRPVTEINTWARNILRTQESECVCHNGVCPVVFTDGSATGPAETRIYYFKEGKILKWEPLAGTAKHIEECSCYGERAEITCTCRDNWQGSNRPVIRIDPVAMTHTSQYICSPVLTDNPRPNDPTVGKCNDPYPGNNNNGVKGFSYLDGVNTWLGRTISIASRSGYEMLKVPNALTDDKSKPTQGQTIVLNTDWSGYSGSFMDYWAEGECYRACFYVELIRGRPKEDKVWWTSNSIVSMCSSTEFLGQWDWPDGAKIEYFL
H1N1 OsR, sequence (Q289M4 whole entry, looked up): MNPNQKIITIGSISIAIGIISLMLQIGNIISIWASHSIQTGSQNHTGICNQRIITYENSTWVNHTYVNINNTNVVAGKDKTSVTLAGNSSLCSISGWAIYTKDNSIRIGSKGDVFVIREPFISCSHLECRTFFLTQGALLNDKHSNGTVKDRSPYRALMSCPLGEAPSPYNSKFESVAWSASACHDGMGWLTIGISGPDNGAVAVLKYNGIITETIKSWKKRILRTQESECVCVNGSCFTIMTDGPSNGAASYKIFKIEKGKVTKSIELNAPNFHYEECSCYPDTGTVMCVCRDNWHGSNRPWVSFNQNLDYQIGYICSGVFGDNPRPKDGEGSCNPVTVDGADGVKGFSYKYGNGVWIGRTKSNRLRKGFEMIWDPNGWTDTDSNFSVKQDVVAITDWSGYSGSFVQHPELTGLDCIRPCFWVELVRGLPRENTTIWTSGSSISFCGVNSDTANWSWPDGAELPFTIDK

One may read the Kd as a measure of binding affinity in units of concentration. A low value points to tighter binding. What is called Ki is a dissociation constant, usually derived from enzyme kinetics or from competition with a known ligand. In data set [1] (30° C., pH 7.6), `CC(=O)N[C@@H]1C(NCc2ccccc2)C(F)[C@](F)(C(=O)O)OC1[C@H](O)[C@H](O)CO` (stereo partly drawn) [C4 Bn] yielded a Kd of 306 µM, an inhibitory constant (Ki) of 4.08 µM and a khyd of 0.0025 min⁻¹. Further, in data set [1] (pH 7.6), the ki/Kd is 0.61 min⁻¹ mM⁻¹.

As to `CCOC(=O)[C@]1(F)OC([C@H](O)[C@H](O)CO)[C@H](NC(C)=O)C(N)C1F` (stereo partly drawn) [Compound 5, Ethyl (2R,3R)-4-Amino-2,4-dideoxy-2,3-difluorosialylate], the Relative activity in data set [2] is 2.27; in [3] it was 0.009; in data set [5], 36.4 and 48.6; in data set [6] (Replicate 1), 7.7; in data set [6] (Replicate 2), 3.1. Further, the figures for the minimal effective concentration in data set [2], in [3] and in [5] were 0.977 µg/mL, 0.488 µg/mL and 0.0076 µg/mL, respectively. The same molecule yielded a Relative toxicity in data set [4] of 4.5. The molecule also yielded a Toxicity in [4] of 125.0 µg/mL. The Cytoprotective effect in [6] (Replicate 1) and in data set [6] (Replicate 2) was 290 ng/mL each time.

Regarding `CCNC1C(F)[C@](F)(C(=O)O)OC([C@H](O)[C@H](O)CO)[C@@H]1NC(C)=O` (stereo partly drawn) [Compound 7, (2R,3R)-4-(N-Ethyl) amino-2,4-dideoxy-2,3-difluorosialic acid], the Relative activity in data set [2] is reported as 0.57; in data set [3] it was 0.001; in [6] (Replicate 1), 0.67; in [6] (Replicate 2), 0.27. Further, the minimal effective concentration in [2] stood at 3.91 µg/mL; in data set [3], 3.91 µg/mL; in data set [5] it was 0.122 µg/mL. Moreover, the “half time for the full inactivation of the sialidase” value (“half time for the full inactivation” for short) in [1] is given as “ca. 10 min”. Also, in data set [1] (30° C., pH 7.6), the equilibrium dissociation constant (Kd) was found to be 14 µM. In data set [1] (pH 7.6), this molecule returned a ki/Kd of 4.1 min⁻¹ mM⁻¹. This molecule had a Relative toxicity in data set [4] of 72.7. In [4], the Toxicity is 7.8 µg/mL. Besides, the Cytoprotective effect in [5] is 61.0 ng/mL; in [6] (Replicate 1), 3267 ng/mL; in [6] (Replicate 2), 3267 ng/mL.

`CC(=O)N[C@@H]1C(N=[N+]=[N-])C(F)[C@](F)(C(=O)O)OC1[C@H](O)[C@H](O)CO` (stereo partly drawn) [Compound 8, (2R,3R)-4-Azido-2,4-dideoxy-2,3-difluorosialic acid]: in data set [1] (4° C.), the equilibrium dissociation constant (Kd) was determined as 240 µM; the “fold lower kinetic value (ki/Kd) than 23DFSA” value stood at 26 fold; the ki/Kd is 7.5 and 7.5^b min^−1mM^−1. In data set [4], this molecule showed a Relative toxicity of 10.6 and a Toxicity of 53.4 µg/mL. In addition, in data set [5], the Relative activity is recorded as 2.7 and the minimal effective concentration was determined as 0.104 µg/mL.

In the case of `CC(=O)N[C@@H]1C(N)C(F)[C@](F)(C(N)=O)OC1[C@H](O)[C@H](O)CO` (stereo partly drawn) [Compound 9, (2R,3R)-4-Amino-2,4-dideoxy-2,3-difluorosialylamide], the Relative activity is recorded as 0.15 in data set [2], 0.001 in [3] and 2.4 in data set [5]. Also, the minimal effective concentration in data set [2] was found to be 15.1 µg/mL; in data set [3] it was 3.76 µg/mL; in data set [5], 0.118 µg/mL. Moreover, in [1], the “half time for the full inactivation” value is on record as “ca. 10 min”. In addition, the Kd in [1] (30° C., pH 7.6) came out at 1020 µM. Further, in data set [1] (pH 7.6), the ki/Kd worked out at 0.34 min⁻¹ mM⁻¹. The molecule further returned a Relative toxicity in data set [4] of 75.5. The same molecule came in with a Toxicity in data set [4] of 7.5 µg/mL.

For the molecule `CC(=O)NC1C(F)[C@](F)(C(=O)O)OC([C@H](O)[C@H](O)CO)[C@@H]1NC(C)=O` (stereo partly drawn) [Compound 11, (2R,3R)-4-(N-Acetyl) amino-2,4-dideoxy-2,3-difluorosialic acid], in data set [1], the “half time for the full inactivation” value was “ca. 10 min”. This molecule also came in with a Kd in [1] (30° C., pH 7.6) of 397 µM. In [1] (pH 7.6), the ki/Kd is 0.53 min⁻¹ mM⁻¹. Also, in [4], the Relative toxicity came out at 5.6 and the Toxicity was 102.3 µg/mL. In data set [5], the Relative activity came to 0.2 and the minimal effective concentration worked out at 1.6 µg/mL.

A word on the half-life: it is how long it takes for the measured level to halve. Low values mean rapid decline, high ones slow decline. Take `CC(=O)N[C@@H]1C(NC(=N)N)C(F)[C@](F)(C(=O)O)OC1[C@H](O)[C@H](O)CO` (stereo partly drawn) [Compound 12, (2R,3R)-4-Guanyl-2,4-dideoxy-2,3-difluorosialic acid]: the IC50 in [7] came out at 2010 µM; in data set [8] it was 0.115 µM; in [9], 0.054 µM; in data set [13] it was 0.0066 µM. In addition, in data set [1], the “half time for the full inactivation” value is recorded as “ca. 10 min”. In addition, the “half time for the full reactivation of the inactivated sialidase” value in data set [1] worked out at 6.7 h. Further, the affinity in [1] (30° C., pH 7.6), expressed as Kd, was 9 µM. The inhibition constant (Ki) in data set [1] (30° C., pH 7.6) was 0.07 µM and 0.0704 µM. The same molecule registered a khyd in data set [1] (30° C., pH 7.6) of 0.0017 min⁻¹. Besides, the “% weight loss mean +/− SD” value in data set [10] (mouse, in vivo) is listed as 4.72 +/− 2.78%; in [12] (1 mg/kg) it was 10.75 +/− 4.87%. In addition, in [10] (n = 5), the “number of animals remaining” value turned out to be 5. The molecule also registered a Toxicity in data set [4] of 0.9 µg/mL. Also, the “Half life for reactivation” value in data set [11] was determined as 116 h. Further, the ki in data set [11] (pH 7.6) came to 0.075 ± 0.002 min⁻¹. The same molecule gave a Cytoprotective effect in data set [5] of 74 ng/mL. Besides, the “survival compared to the untreated control group” value in data set [12] is “significantly extended”. The Cinitial is recorded as 4954 ng/mL in data set [14] and 9480 ng/mL in [14] (iv). Also, the values for the half-life in data set [15] (inhaled or intranasal) and in data set [15] (iv) were 17.3 min and 8.3 min, respectively.

For `CCOC(=O)[C@]1(F)OC([C@H](O)[C@H](O)CO)[C@H](NC(C)=O)C(NC(=N)N)C1F` (stereo partly drawn) [Compound 13, Ethyl (2R,3R)-4-Guanyl-2,4-dideoxy-2,3-difluorosialylate], in [2], the Relative activity amounted to 3.13 and the minimal effective concentration was 0.71 µg/mL. Moreover, in data set [3], the Relative activity worked out at 0.006 and the minimal effective concentration was determined as 0.71 µg/mL. For the same molecule, in data set [4], the Relative toxicity stood at 400.0 and the Toxicity amounted to 1.4 µg/mL. In addition, in data set [5], the Relative activity was 6.3 and 8.3; the minimal effective concentration was 0.0444 µg/mL.

For `CC(=O)N[C@@H]1C(O)C(F)[C@](F)(C(=O)O)OC1[C@H](O)[C@H](O)CO` (stereo partly drawn) [Compound 23DFSA, 2,3-Difluorosialic acid, reference compound], in [2], the Relative activity is given as 0.07 and the minimal effective concentration is 34.1 µg/mL. Moreover, in data set [1] (4° C.), the ki/Kd was 196 and 196^b min^−1mM^−1. In [3], the Relative activity worked out at 0.001 and the minimal effective concentration was 4.26 µg/mL.

Take `CCOC(=O)C1=C[C@@H](OC(CC)CC)[C@H](NC(C)=O)[C@@H](N)C1` [Oseltamivir]: the IC50 is 0.003 µM in data set [16]; 1.7 µM in data set [7]; 0.0031 µM in data set [8]; 0.001 µM in [17] (Influenza A virus); 0.0226 µM in data set [13]; 0.0002 µM in [18].

The AUC is concentration integrated over time. Higher therefore signals more exposure. `CC(=O)N[C@H]1[C@H]([C@H](O)[C@H](O)CO)OC(C(=O)O)=C[C@@H]1N=C(N)N` [Zanamivir, reference compound]: the IC50 in data set [16] was 0.001 µM; in [7], 3.8 µM; in [8], 0.0019 µM; in data set [17] it was 0.0022 µM; in data set [18], 0.0006 µM. For the same molecule, the Relative activity in [2], in data set [3], in data set [5], in data set [6] (Replicate 1) and in data set [6] (Replicate 2) was 1.0 each time. In [4], this molecule gave a Relative toxicity of 1.0. Besides, the Toxicity in data set [4] was 568 µg/mL. For the same molecule, the Cytoprotective effect amounted to 369.9 ng/mL in data set [5], 2219 ng/mL in [6] and 887 ng/mL in data set [6] (Replicate 2). In data set [12], the “survival compared to the untreated control group” value is on record as “significantly extended”. For the same molecule, the “% weight loss mean +/− SD” value in [12] (0.1 mg/kg) was 16.73 +/− 2.62%; in [12] (1 mg/kg), 12.24 +/− 2.34%. The “AUC(Lung) (Zanamivir/DFSA-4Gu)” value in data set [14] (inhaled or intranasal) is 1.07. The molecule further showed an AUC in data set [15] (inhaled or intranasal) of 4230 ng·h/mL. In [15] (inhaled or intranasal), this molecule returned a half-life of 19.1 min.
